We go through two compounds from patent US20260240884A1, “MIXTURE OF HUMAN MILK OLIGOSACCHARIDES” (N.V. Nutricia, priority 2023, published 2026).

The structures appear in SMILES notation.

Experiment [1] relates to SARS-CoV2 WA1. In kind it is cell-based. As to conditions: virus pre-incubated 1 h with 0.5-16 mg/mL; MOI 0.1; 48 h; FIG. 1.
In experiment [2] the test system is RSV-A2. Kind of experiment: Pre-incubation of RSV-A2 with HMOs prior to infection of HEp-2 cells (Viral ToxGlo). In kind it is cell-based, respiratory syncytial virus.
The subject of experiment [3] is RSV-A2. Kind of experiment: Pre-incubation of HEp-2 cells with HMOs before RSV-A2 infection (Viral ToxGlo). Type of experiment: cell-based, respiratory syncytial virus.
Protocol: To assess the effect of mixtures of HMOs on a negative-sense single-stranded RNA virus in vitro infection assays were performed with RSV-A2 strain. Pre-incubation of either HEp-2 cells or RSV-A2 with HMOs prior to infection was compared to assess anti-viral activity. Hep2 cells were exposed to the following conditions as discussed in more detail separately: • I. Pre-incubation of HEp-2 cells with HMOs before viral infection. • II.
HEp-2 cells were seeded in white [Greiner 655098]96 well plates in assay medium (EMEM [Sigma M2279]) supplemented with 2% heat-inactivated fetal bovine serum (HI-FBS) [Gibco 10500064], 1% Penicillin/streptomycin [Gibco 15140122] and 1% L-glutamine [Gibco 25030024] and incubated at 37° C. and 5% CO2 for 5 hours.
HMO mixtures were prepared in sterile water and ribavirin (compound that blocks viral RNA synthesis and viral mRNA capping) was prepared in 1% DMSO at 10× test concentration in a round-bottom 96-well plate [Corning 3788], then serially diluted 2-fold.
The following compounds were assessed for their capacity to inhibit RSV-A2 viral infection: • 2′-FL • A mixture of GOS:FOS at a 9:1 weight ratio • Total HMOs • Mixture of 5 HMOs • Mixture of 19 HMOs • 6′-SL
Test compounds were subsequently transferred to the HEp-2 cell plates. Additional assay medium was added to ensure a final HMO concentration range of 0.13-16 mg/mL. Cell plates were incubated for 24 hours at 37° cand 5% CO2.
After 24-hour incubation with the test conditions RSV-A2 was added to the HMO containing HEp-2 cell plates to achieve a final multiplicity of infection [MOI] of 0.5. Cell plates were incubated for a further 72 hours at 37° C. and 5% CO2.
Viral ToxGlo™ [Promega G8943] was added to the plates to assess cell metabolism following viral infection and HMO treatment. After 20 minutes incubation, luminescence of each plate was measured on a spectrophotometer. Data were analysed using GraphPad Prism software to determine the concentration effective in producing 50% of viral inhibition expressed as ECso values for ribavirin and HMOs where relevant.
Experiment [4] relates to rotavirus (RV) strain SA11. Description: Caco-2 epithelial barrier model infected with rotavirus SA11 (TEER, lucifer yellow permeability). Type of experiment: cell-based. The following applies: Caco-2, 5% (50 mg/ml) for 4 h before SA11 MOI 0.1; 20 h p.i.; FIG. 2A. Background: Caco-2 monolayers are a common model of the intestinal barrier.
Experiment [5] deals with IL-8 secretion of HT-29 cells. Description: IL-8 secretion and viability of HT-29 cells pre-incubated with test compounds and challenged with Lyovec-complexed Poly I:C. In kind it is cell-based, Human.

As for `CC(=O)N[C@H]1[C@H]([C@H](O)[C@H](O)CO)O[C@@](OC[C@H]2O[C@@H](O[C@H]3[C@H](O)[C@@H](O)[C@H](O)O[C@@H]3CO)[C@H](O)[C@@H](O)[C@H]2O)(C(=O)O)C[C@@H]1O` [6′-SL, 6′-sialyllactose], in experiment [1], the “viral neutralization efficacy (viral RNA by RT-qPCR)” value was “did not show viral neutralization efficacy”. Besides, the “Maximum viral inhibition (%)” value in experiment [2] (RSV-A2 pre-incubated 1 h, 0.13-16 mg/mL, MOI 0.5, 72 h) was −0.58%; in experiment [3] (HEp-2 cells pre-incubated 24 h, 0.13-16 mg/mL, RSV-A2 MOI 0.5, 72 h), 2.6%. The “Test concentration maximum viral inhibition” value amounted to 1 mg/mL in experiment [2] (RSV-A2 pre-incubated 1 h, concentration at which the maximum inhibition was seen) and 8 mg/mL in experiment [3] (HEp-2 cells pre-incubated 24 h, concentration at which the maximum inhibition was seen). In experiment [2] (RSV-A2 pre-incubated prior to infection, both replicates (94-95% infection)), the “antiviral activity (in words)” value is given as “no anti-viral activity”. Also, the “anti-viral activity, replicate 1 (in words)” value in experiment [3] (HEp-2 pre-incubation, replicate 1 (67% infection)) was “no anti-viral activity”.
With `O=C[C@H](O)[C@@H](O)[C@H](O[C@@H]1O[C@H](CO)[C@@H](O)[C@H](O)[C@H]1O)[C@H](O)CO` [Cellobiose, cellobiose], the “prevention of rotavirus induced decrease in TEER” value in experiment [4] is on record as “no effect”. Moreover, the “Mean IL-8 secretion” value in experiment [5] (0.1% + Poly I:C, Poly I:C alone 21799.28) amounted to 20023.80 pg/mL; in experiment [5] (0.1%, no Poly I:C, Medium 359.54), 277.94 pg/mL.
